# Target: Adenosine receptor A2a (Rattus norvegicus, UniProt P30543)
# Sequence (P30543 whole entry): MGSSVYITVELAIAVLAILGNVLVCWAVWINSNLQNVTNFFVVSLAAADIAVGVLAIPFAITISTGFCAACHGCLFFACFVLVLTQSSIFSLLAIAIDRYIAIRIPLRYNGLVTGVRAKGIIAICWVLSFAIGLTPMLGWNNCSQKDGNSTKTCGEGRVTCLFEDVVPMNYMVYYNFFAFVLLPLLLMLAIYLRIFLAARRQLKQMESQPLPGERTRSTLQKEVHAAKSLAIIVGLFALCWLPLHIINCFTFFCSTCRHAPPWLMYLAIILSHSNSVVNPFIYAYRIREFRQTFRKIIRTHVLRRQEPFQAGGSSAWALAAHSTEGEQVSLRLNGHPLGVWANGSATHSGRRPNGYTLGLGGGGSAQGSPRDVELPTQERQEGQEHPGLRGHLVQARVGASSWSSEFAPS
row,Ki [µM],SMILES
1,> 10,"Cn1c(=O)c2[nH]c(-c3ccc(S(=O)(=O)O)cc3)nc2n(C)c1=O [4-(1,3-Dimethyl-2,6-dioxo-2,3,6,7-tetrahydro-1H-purin-8-yl)-benzenesulfonic acid]"
2,> 10,"Cn1c(=O)c2[nH]c(-c3ccccc3)nc2n(C)c1=O [1,3-Dimethyl-8-phenyl-3,9-dihydro-purine-2,6-dione]"

# Source: BindingDB's records for doi:10.1111/j.1476-5381.1995.tb15923.x (Zeneca Pharmaceuticals, 1995)
